Experimental data from ChEMBL document CHEMBL1126661, “Oxidation chemistry of the endogenous central nervous system alkaloid salsolinol-1-carboxylic acid” (J Med Chem, 1993).

Tested on: Mus musculus
Assay: Compound was evaluated for its lethal dose (LD50) by dissolving in 5 microL of isotonic saline and injected intracranially in mice which resulted in the death of 50% of the treated animals within 1 hour
Assay type: ADME, organism-based
Conditions: in vivo, other

Q: With `CC1=NCCc2c1cc(O)c(O)c2O` as the molecule, how does the LD50 read?
A: Its LD50 is 38.9 µg.

Q: How did the LD50 turn out when `CC1=NCCc2cc(O)c(O)cc21` was run?
A: Its LD50 is 31.1 µg.
